Calls of active or inactive are those of the source. The rule behind the calls is not given here.
Columns and labels:
[1] = target: D(2) dopamine receptor (Homo sapiens) (UniProt P14416); settings: Compound concentration 10.0 uM
[2] = target: Protein farnesyltransferase (Bos taurus, UniProt P29702+P49355); assay: (§1) Scintillation proximity assay (SPA); type: protein-complex assay
[3] = target: Muscarinic acetylcholine receptor M3 (Homo sapiens) (UniProt P20309); assay: M3 (h) Ligand binding assay; settings: Compound concentration 10.0 uM
Sequence of Muscarinic acetylcholine receptor M3 (Homo sapiens) (P20309 whole entry, looked up): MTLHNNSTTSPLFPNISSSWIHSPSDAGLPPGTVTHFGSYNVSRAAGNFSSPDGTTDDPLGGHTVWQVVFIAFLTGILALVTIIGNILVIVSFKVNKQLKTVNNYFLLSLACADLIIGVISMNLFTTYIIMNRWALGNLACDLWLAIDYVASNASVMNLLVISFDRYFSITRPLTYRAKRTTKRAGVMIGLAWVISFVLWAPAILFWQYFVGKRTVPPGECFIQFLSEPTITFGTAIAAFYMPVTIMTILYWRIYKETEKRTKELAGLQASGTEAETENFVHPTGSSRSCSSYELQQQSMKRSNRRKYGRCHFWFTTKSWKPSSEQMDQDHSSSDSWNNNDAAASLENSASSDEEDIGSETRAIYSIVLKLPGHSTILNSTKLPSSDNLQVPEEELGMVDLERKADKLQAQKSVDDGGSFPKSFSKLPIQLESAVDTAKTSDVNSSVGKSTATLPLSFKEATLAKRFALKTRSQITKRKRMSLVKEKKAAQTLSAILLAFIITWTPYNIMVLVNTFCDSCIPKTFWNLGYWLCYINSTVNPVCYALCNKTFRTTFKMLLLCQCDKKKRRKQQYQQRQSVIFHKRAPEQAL

[4] = target: Neuromedin-K receptor (Homo sapiens) (UniProt P29371); assay: NK3 (h) Ligand binding assay; settings: Compound concentration 10.0 uM
[5] = target: D(1A) dopamine receptor (Homo sapiens) (UniProt P21728); assay: D1 (h) Ligand binding assay; settings: Compound concentration 10.0 uM
Sequence of D(1A) dopamine receptor (Homo sapiens) (P21728 whole entry): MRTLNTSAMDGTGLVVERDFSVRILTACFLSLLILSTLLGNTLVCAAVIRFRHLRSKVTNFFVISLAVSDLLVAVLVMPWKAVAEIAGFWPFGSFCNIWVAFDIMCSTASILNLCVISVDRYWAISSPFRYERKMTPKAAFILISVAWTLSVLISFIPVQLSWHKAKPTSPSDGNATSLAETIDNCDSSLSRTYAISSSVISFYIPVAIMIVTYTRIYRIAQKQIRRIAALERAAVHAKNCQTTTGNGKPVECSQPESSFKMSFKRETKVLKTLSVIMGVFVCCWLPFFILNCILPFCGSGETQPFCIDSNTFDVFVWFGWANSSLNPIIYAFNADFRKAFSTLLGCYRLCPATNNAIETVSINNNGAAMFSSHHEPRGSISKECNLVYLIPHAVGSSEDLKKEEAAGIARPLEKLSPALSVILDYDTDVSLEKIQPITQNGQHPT

[6] = target: Prostacyclin receptor (Homo sapiens) (UniProt P43119); assay: PGI2 (h) Ligand binding assay; settings: Compound concentration 10.0 uM
Sequence of Prostacyclin receptor (Homo sapiens) (P43119 whole entry): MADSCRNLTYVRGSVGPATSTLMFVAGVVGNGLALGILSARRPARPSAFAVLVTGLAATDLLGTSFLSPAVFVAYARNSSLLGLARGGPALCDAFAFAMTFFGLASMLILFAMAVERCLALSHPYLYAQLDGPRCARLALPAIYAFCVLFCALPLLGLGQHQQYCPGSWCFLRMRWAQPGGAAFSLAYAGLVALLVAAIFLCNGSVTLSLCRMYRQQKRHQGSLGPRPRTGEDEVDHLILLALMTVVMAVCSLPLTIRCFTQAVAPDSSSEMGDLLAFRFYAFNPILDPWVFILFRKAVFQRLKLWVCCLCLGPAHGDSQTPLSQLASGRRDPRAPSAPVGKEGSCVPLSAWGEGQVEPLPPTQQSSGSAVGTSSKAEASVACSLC

[7] = target: Tumor necrosis factor (Homo sapiens) (UniProt P01375); assay: TNF-alpha (h) Ligand binding assay; settings: Compound concentration 10.0 uM
Sequence of Tumor necrosis factor (Homo sapiens) (P01375 whole entry): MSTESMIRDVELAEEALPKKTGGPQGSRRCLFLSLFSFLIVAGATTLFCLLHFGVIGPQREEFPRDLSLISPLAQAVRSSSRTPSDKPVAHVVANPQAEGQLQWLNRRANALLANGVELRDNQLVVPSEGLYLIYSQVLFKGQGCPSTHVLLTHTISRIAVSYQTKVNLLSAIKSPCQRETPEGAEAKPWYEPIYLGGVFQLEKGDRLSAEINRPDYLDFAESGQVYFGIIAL

[8] = target: Cyclin-dependent kinase 7 (Homo sapiens, UniProt P50613); assay: Inhibition of CDK7 at compound concentration of 10.0 uM using the ScanMax (DiscoverX)
Sequence of Cyclin-dependent kinase 7 (P50613 whole entry): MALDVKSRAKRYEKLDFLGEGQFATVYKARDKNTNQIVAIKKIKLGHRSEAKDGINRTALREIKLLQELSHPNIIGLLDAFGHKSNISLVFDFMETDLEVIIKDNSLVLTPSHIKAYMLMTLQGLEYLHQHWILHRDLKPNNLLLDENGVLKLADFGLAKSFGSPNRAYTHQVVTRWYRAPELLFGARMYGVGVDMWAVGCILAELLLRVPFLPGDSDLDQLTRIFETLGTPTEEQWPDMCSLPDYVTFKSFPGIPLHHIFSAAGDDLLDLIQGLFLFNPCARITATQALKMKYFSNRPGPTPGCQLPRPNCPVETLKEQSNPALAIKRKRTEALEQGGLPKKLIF

[9] = target: Calcium-activated potassium channel (Homo sapiens) (UniProt Q92952+Q9UGI6+Q12791+O15554+Q9H2S1+A8MYU2); assay: K+ channel (Ca2+ - dependent) Ligand binding assay; type: protein assay; settings: Compound concentration 10.0 uM
sodium channel (site 2) = sodium channel (site 2) (Homo sapiens, UniProt P35498+P35499+Q01118+Q14524+Q15858+Q99250+Q9NY46+Q9UI33+Q9UQD0+Q9Y5Y9); assay: Na+ channel (site 2) Ligand binding assay; type: protein assay
[10] = target: Somatostatin receptor (Homo sapiens) (UniProt P35346+P30874+P31391+P30872+P32745); assay: Somatostatin Ligand binding assay; type: protein assay; settings: Compound concentration 10.0 uM
[11] = target: D(1B) dopamine receptor (Homo sapiens) (UniProt P21918); assay: D5 (h) Ligand binding assay; settings: Compound concentration 10.0 uM
Sequence of D(1B) dopamine receptor (Homo sapiens) (P21918 whole entry): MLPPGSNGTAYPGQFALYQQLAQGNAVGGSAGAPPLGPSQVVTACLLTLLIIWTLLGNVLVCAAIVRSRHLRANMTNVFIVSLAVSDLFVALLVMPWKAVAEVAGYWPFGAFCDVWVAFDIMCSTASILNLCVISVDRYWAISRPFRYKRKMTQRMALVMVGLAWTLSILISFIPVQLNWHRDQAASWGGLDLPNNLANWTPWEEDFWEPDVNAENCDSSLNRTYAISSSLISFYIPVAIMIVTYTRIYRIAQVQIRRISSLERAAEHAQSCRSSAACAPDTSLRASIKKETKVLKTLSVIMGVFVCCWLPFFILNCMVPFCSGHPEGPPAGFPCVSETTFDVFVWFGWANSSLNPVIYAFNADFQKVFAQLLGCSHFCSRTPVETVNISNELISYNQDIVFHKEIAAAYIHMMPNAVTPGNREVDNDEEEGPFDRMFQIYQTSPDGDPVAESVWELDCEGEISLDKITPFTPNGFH

[12] = target: 5-hydroxytryptamine receptor 7 (Homo sapiens) (UniProt P34969); assay: 5-HT7 (h) Ligand binding assay; settings: Compound concentration 10.0 uM
[13] = target: Atrial natriuretic peptide receptor 1 (Homo sapiens) (UniProt P16066); assay: ANP Ligand binding assay; settings: Compound concentration 10.0 uM
[14] = target: Beta-2 adrenergic receptor (Homo sapiens) (UniProt P07550); assay: beta2 (h) Ligand binding assay; settings: Compound concentration 10.0 uM
Sequence of Beta-2 adrenergic receptor (Homo sapiens) (P07550 whole entry, looked up): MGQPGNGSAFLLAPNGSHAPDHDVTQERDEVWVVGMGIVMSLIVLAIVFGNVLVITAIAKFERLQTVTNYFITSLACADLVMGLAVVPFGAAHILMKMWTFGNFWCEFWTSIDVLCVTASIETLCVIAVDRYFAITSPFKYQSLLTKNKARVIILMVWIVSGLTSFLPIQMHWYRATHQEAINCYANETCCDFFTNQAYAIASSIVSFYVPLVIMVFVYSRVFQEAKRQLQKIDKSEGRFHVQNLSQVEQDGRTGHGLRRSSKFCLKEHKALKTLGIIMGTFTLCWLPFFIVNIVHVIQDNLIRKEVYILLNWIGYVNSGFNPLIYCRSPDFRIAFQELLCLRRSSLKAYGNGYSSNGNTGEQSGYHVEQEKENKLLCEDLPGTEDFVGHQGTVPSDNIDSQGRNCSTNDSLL

[15] = as §1; set-up: species or system Homo sapiens
[16] = target: Galanin receptor type 1 (Homo sapiens) (UniProt P47211); assay: GALI (h) Ligand binding assay; settings: Compound concentration 10.0 uM
[17] = target: G protein-coupled receptor kinase 3 (Homo sapiens, UniProt P35626); assay: Inhibition of GRK3 at compound concentration of 10.0 uM using the ScanMax (DiscoverX)
[18] = target: Neuropeptide Y receptor type 2 (Homo sapiens) (UniProt P49146); assay: Y2 (h) Ligand binding assay; settings: Compound concentration 10.0 uM
Sequence of Neuropeptide Y receptor type 2 (Homo sapiens) (P49146 whole entry): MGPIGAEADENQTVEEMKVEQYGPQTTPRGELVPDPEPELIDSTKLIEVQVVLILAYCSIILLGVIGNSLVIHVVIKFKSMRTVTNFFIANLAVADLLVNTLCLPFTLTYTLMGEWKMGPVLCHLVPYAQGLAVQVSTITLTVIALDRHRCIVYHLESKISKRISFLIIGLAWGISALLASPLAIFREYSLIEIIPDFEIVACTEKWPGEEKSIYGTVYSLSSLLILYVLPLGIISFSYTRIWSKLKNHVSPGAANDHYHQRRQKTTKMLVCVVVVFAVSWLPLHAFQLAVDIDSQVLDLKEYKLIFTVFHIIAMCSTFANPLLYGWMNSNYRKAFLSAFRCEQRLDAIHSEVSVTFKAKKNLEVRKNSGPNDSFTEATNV

[19] = target: T1, 5-hydroxytryptamine receptor 3A (Homo sapiens) (UniProt P46098); assay: 5-HT3 (h) Ligand binding assay; settings: Compound concentration 10.0 uM
T1 sequence (whole entry): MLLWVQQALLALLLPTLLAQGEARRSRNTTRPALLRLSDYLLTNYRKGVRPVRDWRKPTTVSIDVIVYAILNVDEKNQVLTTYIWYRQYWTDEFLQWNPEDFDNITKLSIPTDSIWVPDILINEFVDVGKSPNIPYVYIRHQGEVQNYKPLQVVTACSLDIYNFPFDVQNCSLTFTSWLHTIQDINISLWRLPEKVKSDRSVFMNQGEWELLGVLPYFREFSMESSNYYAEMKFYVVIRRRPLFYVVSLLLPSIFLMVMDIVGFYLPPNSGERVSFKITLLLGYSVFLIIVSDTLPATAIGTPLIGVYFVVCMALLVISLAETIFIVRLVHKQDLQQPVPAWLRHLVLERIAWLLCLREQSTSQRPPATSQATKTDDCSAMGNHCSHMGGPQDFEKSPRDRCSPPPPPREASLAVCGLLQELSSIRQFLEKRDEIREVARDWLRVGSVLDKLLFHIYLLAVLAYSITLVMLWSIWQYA

[20] = target: Substance-P receptor (Homo sapiens) (UniProt P25103); assay: NK1 (h) Ligand binding assay
Sequence of Substance-P receptor (Homo sapiens) (P25103 whole entry): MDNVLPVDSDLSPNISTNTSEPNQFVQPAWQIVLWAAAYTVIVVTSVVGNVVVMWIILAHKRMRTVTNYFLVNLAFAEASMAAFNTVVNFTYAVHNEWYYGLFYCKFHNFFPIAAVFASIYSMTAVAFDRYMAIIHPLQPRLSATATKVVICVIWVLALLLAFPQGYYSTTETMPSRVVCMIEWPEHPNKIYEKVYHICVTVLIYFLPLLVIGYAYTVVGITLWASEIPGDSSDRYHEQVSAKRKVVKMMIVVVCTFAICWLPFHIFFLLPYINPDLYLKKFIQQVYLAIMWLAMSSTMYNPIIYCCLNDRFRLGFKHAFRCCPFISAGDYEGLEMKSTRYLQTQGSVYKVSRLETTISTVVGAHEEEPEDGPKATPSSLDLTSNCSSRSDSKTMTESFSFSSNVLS

[21] = target: B2 bradykinin receptor (Homo sapiens) (UniProt P30411); assay: B2 (h) Ligand binding assay; settings: Compound concentration 10.0 uM
Sequence of B2 bradykinin receptor (Homo sapiens) (P30411 whole entry): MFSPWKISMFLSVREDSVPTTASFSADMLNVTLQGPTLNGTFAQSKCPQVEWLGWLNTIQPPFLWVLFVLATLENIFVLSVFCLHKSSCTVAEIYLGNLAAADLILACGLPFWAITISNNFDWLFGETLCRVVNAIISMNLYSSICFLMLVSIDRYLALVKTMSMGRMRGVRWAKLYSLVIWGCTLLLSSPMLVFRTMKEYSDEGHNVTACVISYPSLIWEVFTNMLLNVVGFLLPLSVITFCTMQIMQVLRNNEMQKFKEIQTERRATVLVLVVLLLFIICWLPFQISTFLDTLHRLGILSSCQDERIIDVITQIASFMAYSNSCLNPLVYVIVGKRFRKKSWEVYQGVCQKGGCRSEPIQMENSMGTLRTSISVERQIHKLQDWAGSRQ

[22] = target: Cholecystokinin receptor type A (Homo sapiens) (UniProt P32238); assay: CCKA (h) Ligand binding assay; settings: Compound concentration 10.0 uM
[23] = target: Nociceptin receptor (Homo sapiens) (UniProt P41146); assay: ORL-1 (h) Ligand binding assay; settings: Compound concentration 10.0 uM
Sequence of Nociceptin receptor (Homo sapiens) (P41146 whole entry): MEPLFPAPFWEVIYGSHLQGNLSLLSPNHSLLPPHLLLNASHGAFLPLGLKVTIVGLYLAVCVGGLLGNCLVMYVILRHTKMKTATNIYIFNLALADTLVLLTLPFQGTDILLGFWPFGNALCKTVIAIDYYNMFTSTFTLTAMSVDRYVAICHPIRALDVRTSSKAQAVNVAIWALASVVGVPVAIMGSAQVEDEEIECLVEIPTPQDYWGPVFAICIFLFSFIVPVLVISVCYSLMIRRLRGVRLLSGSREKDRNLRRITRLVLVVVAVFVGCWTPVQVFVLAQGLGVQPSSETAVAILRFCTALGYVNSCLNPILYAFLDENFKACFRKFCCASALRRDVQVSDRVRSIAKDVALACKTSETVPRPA

[24] = target: Type-2 angiotensin II receptor (Homo sapiens) (UniProt P50052); assay: AT2 (h) Ligand binding assay; settings: Compound concentration 10.0 uM
[25] = target: voltage-dependent potassium channel (Homo sapiens, UniProt O43525+O43526+O95259+P16389+P17658+P22001+P22459+P22460+P48547+P51787+P56696+Q03721+Q09470+Q12809+Q14003+Q14721+Q16322+Q6PIU1+Q8NCM2+Q8TAE7+Q8TDN1+Q8TDN2+Q92953+Q96KK3+Q96L42+Q96PR1+Q96RP8+Q9BQ31+Q9H252+Q9H3M0+Q9NR82+Q9NS40+Q9NSA2+Q9NZV8+Q9UIX4+Q9UJ96+Q9UK17+Q9ULD8+Q9ULS6+Q9UQ05); assay: K+ channel (Volt-dependent) Ligand binding assay; type: protein assay; settings: compound concentration 10 uM
[26] = target: Melatonin receptor type 1A (Homo sapiens) (UniProt P48039); assay: ML1 Ligand binding assay; settings: Compound concentration 10.0 uM
Sequence of Melatonin receptor type 1A (Homo sapiens) (P48039 whole entry, looked up): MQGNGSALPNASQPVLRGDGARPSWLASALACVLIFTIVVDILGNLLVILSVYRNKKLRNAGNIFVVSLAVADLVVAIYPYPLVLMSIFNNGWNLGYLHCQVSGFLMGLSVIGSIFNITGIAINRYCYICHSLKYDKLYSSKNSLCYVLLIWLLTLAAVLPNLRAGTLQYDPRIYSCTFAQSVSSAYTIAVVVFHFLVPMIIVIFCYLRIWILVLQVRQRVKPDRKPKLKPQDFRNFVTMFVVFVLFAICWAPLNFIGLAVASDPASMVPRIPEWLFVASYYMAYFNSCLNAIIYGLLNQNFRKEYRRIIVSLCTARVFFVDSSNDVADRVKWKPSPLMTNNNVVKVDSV

Aurora kinase B = Aurora kinase B (Homo sapiens, UniProt Q96GD4); assay: Inhibition of AURKB at compound concentration of 10.0 uM using the ScanMax (DiscoverX)
[27] = target: T2, Muscarinic acetylcholine receptor M4 (Homo sapiens) (UniProt P08173); assay: M4 (h) Ligand binding assay; settings: Compound concentration 10.0 uM
T2 sequence (whole entry): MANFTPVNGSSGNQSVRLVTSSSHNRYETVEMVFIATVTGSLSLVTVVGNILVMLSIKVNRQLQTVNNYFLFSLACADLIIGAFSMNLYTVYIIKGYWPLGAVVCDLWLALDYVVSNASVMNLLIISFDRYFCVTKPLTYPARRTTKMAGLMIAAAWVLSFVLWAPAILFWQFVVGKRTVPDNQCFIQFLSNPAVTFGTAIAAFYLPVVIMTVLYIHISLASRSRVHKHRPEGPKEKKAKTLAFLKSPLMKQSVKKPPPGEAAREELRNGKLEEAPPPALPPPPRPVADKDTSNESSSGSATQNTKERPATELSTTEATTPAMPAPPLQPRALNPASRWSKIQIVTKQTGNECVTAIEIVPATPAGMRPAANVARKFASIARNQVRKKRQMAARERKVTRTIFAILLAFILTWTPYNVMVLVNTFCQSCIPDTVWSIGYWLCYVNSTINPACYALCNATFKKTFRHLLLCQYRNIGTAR

[28] = target: Endothelin receptor type B (Homo sapiens) (UniProt P24530); assay: ETB (h) Ligand binding assay; settings: Compound concentration 10.0 uM

Cn1cncc1[C@@](O)(COc1ccc(C#N)cc1-c1ccc(OC(F)(F)F)cc1)c1ccc(C#N)cc1 [A-108]
inhibition [1]: 7.47%
IC50 [2]: > 100 nM (not active)

Cn1cncc1[C@](O)(COc1ccc(C#N)cc1-c1ccc(OC(F)(F)F)cc1)c1ccc(C#N)cc1 [ABT-100]
inhibition [3]: < 10%
inhibition [4]: 45%
inhibition [5]: 31%
inhibition [6]: < 10%
inhibition [7]: 24%
Kd [8]: > 10 µM (not active)
inhibition [9]: < 10%
inhibition at 0.3 µM (sodium channel (site 2); compound concentration 0.3 uM): 15% (not active)
inhibition at 1 µM (sodium channel (site 2); compound concentration 1 uM): 10% (not active)
inhibition at 3 µM (sodium channel (site 2); compound concentration 3 uM): 22% (not active)
inhibition at 10 µM (sodium channel (site 2); compound concentration 10 uM): 58%
inhibition [10]: 13%
inhibition [11]: 54%
inhibition [12]: 22%
inhibition [13]: < 10%
inhibition [14]: 10%
IC50 [15]: 0.05 nM (active)
inhibition [16]: < 10%
Kd [17]: > 10 µM (not active)
inhibition [18]: < 10%
inhibition [19]: 12%
inhibition ([20]; Compound concentration 3.0 uM): 31%
inhibition ([20]; Compound concentration 10.0 uM): 68%
inhibition [21]: < 10%
inhibition [22]: < 10%
inhibition [23]: < 10%
inhibition [24]: < 10%
inhibition at 10 µM [25]: < 10% (not active)
inhibition [26]: 50%
Kd (Aurora kinase B): > 10 µM (not active)
inhibition [27]: < 10%
inhibition [28]: 21%

From ChEMBL document CHEMBL4507257, “Data for DCP probe ABT-100” (2021)
